Results on one substance are retold here after patent US10604794B2, “Method to measure the shortest telomeres” (The Board of Regents of The University of Texas System, priority 2017, dated 2020).

The test system of assay [1] is H2087 cells. Nature of the assay: Interphase Q-FISH telomere length in H2087 cells under long-term imetelstat treatment. Conditions: 1 μM imetelstat, 18 weeks treatment compared to 0 weeks and 5 weeks after drug removal. Format: cell-based. As to the method: (§1) FIGS. 2A-2C. Measuring TL in long-term telomerase inhibition with imetelstat (1 μM) treatment and after a removal of drug in H2087 cells. (2A) Isolated DNA from H2087 cells with 1 μM imetelstat treatment for 0, 10 and 18 weeks, and post released from 18 weeks for 1, 2, 3, 4, and 5 weeks was digested with the same REs for TeSLA (BfaI/CviAII/MseI/NdeI) and then separated with 0.7% agarose gel for TRF analysis. (2B) Interphase Q-FISH; cells from H2087 with 0, and 18 weeks 1 μM imetelstat treatment, and 5 weeks after drug removal were used to measure TL by Q-FISH. The results were quantified using TFL-Telo software (n: numbers of nuclei were quantified for each time point as indicated above). (2C) Results of TeSLA using DNA as indicated. Four TeSLA reactions (30 pg of each reaction) were performed for each DNA sample.
(§2) To further examine the utility of TeSLA in studying telomere dynamics, the inventors evaluated TL dynamics in a telomerase positive non-small cell lung cancer (NSCLC) cell line (H2087). These cells were subjected to long-term telomerase inhibition treatment and then released to observe the dynamic of telomere re-elongation. The results were compared using TeSLA, TRF and telomere Q-FISH. […] In contrast, TeSLA is able to detect TL in both imetelstat treated cells and cells post released from drug in a much more quantitative manner (FIG. 2C). […]

In a further assay the test system is NSCLC cell lines. The following applies: long-term treatment, multiple NSCLC cell lines; cited from earlier work.
In assay [2] the test system is H2087 cells. Nature of the assay: TRF analysis of telomere length in H2087 cells under long-term imetelstat treatment. It is filed as cell-based. The following applies: 1 μM imetelstat 3 times per week, 10 and 18 weeks treatment. As to the method:
as §1, §2

The test system of another assay is telomerase. The following applies: binds to the active site of telomerase RNA; cited from earlier work.

As for imetelstat, in the assay with H2087 cells [1], the “telomere signals by Q-FISH” value is recorded as “only a few telomere signals with relatively low intensity were detected”. Besides, in the assay on NSCLC cell lines, the “average TL change” value is listed as “shorten average TL”. Moreover, the “average TL change by TRF analysis” value in the assay with H2087 cells [2] is listed as “average TL shortening”. The telomerase activity entry with telomerase was “robustly inhibits telomerase activity”.
